Legend:
[1] = molecular target: T1, 5-hydroxytryptamine receptor 2B (Homo sapiens, UniProt P41595)
[2] = physchem; conditions: buffer, pH 7.4
Description: Lipophilicity, log D at pH 7.4

[3] = molecular target: T2, 5-hydroxytryptamine receptor 2C (Homo sapiens, UniProt P28335)
T2 sequence (P28335 whole entry): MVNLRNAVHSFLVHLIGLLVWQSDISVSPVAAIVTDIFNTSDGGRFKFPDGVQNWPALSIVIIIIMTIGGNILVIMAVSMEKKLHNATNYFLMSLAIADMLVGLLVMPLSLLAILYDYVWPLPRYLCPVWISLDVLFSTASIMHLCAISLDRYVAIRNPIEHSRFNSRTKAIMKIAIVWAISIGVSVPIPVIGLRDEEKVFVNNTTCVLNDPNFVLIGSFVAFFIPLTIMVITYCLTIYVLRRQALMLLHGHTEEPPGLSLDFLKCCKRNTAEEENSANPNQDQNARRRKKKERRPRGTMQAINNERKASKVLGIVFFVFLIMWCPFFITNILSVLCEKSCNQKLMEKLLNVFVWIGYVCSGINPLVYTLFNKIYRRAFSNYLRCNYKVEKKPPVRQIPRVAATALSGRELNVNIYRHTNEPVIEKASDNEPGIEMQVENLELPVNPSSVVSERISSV

[4] = molecular target: T3, 5-hydroxytryptamine receptor 2C (Homo sapiens) (UniProt P28335); experiment: Agonist activity at human recombinant 5HT2C receptor expressed in CHO K1 cells assessed as induction of calcium mobilization by FLIPR assay relative to 5-HT; assay type: functional, cell-based
T3 sequence (whole entry): T2 sequence (P28335 whole entry)

[5] = molecular target: T1, 5-hydroxytryptamine receptor 2B; experiment: Agonist activity at human recombinant 5HT2B receptor assessed as induction of calcium mobilization by FLIPR assay relative to 5-HT; assay type: functional
[6] = in vitro; conditions: human, liver microsomes
Description: (§1) Metabolic stability in human liver microsomes assessed per mg of protein

[7] = molecular target: T1, 5-hydroxytryptamine receptor 2B; experiment: Agonist activity at human recombinant 5HT2B receptor assessed as induction of calcium mobilization at 10 uM by FLIPR assay relative to 5-HT; assay type: functional
[8] = tested on: MDR1; experiment: in vitro; conditions: dog, MDCK-MDR1
Description: Apparent membrane permeability across apical to basolateral side of MDR1 expressing MDCK cells

[9] = species: Homo sapiens; experiment: Selectivity ratio of EC50 for human recombinant 5HT2B receptor to EC50 for human recombinant 5HT2A receptor
[10] = molecular target: 5-hydroxytryptamine receptor 2A (Canis lupus familiaris) (UniProt O46635); experiment: Agonist activity at 5-HT2A receptor in dog bladder strip relative to 5-HT; assay type: functional
[11] = molecular target: 5-hydroxytryptamine receptor 2A (Canis lupus familiaris, UniProt O46635); experiment: Agonist activity at 5-HT2A receptor in dog bladder strip; assay type: functional
[12] = tested on: Liver microsomes; conditions: human
Description: as §1

[13] = molecular target: T4, Cytochrome P450 1A2 (Homo sapiens, UniProt P05177); experiment: Inhibition of CYP1A2; assay type: ADME
T4 sequence (P05177 whole entry): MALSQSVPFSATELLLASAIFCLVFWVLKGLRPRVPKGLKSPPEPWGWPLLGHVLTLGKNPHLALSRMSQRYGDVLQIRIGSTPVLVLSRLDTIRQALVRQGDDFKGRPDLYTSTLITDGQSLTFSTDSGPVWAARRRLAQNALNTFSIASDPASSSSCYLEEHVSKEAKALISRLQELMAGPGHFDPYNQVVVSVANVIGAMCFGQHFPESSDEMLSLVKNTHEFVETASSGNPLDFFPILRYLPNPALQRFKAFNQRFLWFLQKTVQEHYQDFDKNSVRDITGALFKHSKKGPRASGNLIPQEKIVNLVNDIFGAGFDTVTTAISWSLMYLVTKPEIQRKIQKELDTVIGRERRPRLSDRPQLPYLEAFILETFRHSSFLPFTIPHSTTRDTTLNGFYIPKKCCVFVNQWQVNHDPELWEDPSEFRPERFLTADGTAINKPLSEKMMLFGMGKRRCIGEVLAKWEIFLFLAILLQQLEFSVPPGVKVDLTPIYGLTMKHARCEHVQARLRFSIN

[14] = molecular target: Cytochrome P450 2C9 (Homo sapiens, UniProt P11712); experiment: Inhibition of CYP2C9; assay type: ADME
[15] = molecular target: Cytochrome P450 2D6 (Homo sapiens, UniProt P10635); experiment: Inhibition of CYP2D6; assay type: ADME
[16] = molecular target: T5, 5-hydroxytryptamine receptor 3A (Homo sapiens, UniProt P46098); experiment: Inhibition of 5HT3 receptor
T5 sequence (P46098 whole entry): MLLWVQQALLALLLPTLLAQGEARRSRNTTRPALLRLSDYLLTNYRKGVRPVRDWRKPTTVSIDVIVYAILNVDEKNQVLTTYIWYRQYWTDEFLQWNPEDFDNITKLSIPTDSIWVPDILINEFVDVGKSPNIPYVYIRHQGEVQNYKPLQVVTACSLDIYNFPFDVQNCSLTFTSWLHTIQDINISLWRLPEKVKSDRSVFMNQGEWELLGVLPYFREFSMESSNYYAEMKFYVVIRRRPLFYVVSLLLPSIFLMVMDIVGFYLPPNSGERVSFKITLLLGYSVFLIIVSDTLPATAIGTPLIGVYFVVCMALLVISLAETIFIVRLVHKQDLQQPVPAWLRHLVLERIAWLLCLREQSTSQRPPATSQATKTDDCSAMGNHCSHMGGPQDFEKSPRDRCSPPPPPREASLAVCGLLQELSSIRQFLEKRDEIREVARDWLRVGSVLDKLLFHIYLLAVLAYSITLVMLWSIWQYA

[17] = molecular target: Muscarinic acetylcholine receptor M3 (Homo sapiens, UniProt P20309); experiment: Inhibition of muscarinic receptor 3
[18] = tested on: Canis familiaris; experiment: Increase of peak urethral pressure in dog model of stress incontinence at 150 ug/kg, iv after 60 mins; assay type: functional, Canis lupus familiaris, Urethra
[19] = Plasma concentration in dog model of stress incontinence at 150 ug/kg, iv after 60 mins; assay type: ADME, organism-based, Canis lupus familiaris; conditions: 0.15 mg/kg
[20] = molecular target: Cytochrome P450 3A4 (Homo sapiens, UniProt P08684); experiment: Inhibition of CYP3A4; assay type: ADME
[21] = molecular target: Voltage-gated inwardly rectifying potassium channel KCNH2 (Homo sapiens, UniProt Q12809); experiment: Displacement of dofrtilide from human ERG channel
[22] = molecular target: Beta-2 adrenergic receptor (Homo sapiens, UniProt P07550); experiment: Inhibition of beta2 adrenergic receptor
Chain of Beta-2 adrenergic receptor (P07550 whole entry): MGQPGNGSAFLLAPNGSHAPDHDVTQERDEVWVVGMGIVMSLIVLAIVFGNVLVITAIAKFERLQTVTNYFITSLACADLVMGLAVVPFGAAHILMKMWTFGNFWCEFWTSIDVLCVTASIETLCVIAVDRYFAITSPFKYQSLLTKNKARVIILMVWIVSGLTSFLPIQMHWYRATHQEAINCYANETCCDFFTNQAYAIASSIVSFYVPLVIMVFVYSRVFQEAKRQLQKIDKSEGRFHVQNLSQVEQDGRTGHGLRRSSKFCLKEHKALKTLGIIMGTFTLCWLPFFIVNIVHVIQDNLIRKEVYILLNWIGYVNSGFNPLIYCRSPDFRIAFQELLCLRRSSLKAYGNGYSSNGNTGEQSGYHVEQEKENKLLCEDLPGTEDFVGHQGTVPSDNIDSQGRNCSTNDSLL

T1 sequence (P41595 whole entry): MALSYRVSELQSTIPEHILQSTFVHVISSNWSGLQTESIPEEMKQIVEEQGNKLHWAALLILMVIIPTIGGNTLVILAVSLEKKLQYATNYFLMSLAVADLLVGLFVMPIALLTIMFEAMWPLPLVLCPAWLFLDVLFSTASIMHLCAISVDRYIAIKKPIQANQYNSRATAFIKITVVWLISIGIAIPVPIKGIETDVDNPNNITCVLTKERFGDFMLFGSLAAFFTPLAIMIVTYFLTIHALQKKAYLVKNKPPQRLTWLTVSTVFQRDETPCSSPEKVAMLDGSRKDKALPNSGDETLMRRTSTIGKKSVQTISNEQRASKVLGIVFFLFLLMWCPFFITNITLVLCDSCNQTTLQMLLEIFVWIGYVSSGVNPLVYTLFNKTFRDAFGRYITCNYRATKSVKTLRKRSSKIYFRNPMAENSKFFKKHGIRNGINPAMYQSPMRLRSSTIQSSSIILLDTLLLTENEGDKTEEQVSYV
Chain of 5-hydroxytryptamine receptor 2A (O46635 whole entry): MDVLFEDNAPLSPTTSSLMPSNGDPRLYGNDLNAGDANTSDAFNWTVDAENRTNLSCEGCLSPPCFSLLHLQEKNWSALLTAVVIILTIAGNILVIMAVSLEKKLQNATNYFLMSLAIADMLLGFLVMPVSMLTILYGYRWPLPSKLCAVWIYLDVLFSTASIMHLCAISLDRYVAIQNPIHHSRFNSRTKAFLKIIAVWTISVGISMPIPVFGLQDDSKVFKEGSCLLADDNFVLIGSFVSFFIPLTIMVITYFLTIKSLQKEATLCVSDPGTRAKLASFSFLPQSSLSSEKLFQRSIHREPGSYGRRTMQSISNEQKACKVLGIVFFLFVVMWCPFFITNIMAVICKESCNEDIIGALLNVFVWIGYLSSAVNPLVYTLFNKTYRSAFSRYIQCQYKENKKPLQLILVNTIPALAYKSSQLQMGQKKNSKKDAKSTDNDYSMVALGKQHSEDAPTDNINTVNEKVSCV
Chain of 5-hydroxytryptamine receptor 2A (Canis lupus familiaris) (O46635 whole entry): as above
Chain of Muscarinic acetylcholine receptor M3 (P20309 whole entry): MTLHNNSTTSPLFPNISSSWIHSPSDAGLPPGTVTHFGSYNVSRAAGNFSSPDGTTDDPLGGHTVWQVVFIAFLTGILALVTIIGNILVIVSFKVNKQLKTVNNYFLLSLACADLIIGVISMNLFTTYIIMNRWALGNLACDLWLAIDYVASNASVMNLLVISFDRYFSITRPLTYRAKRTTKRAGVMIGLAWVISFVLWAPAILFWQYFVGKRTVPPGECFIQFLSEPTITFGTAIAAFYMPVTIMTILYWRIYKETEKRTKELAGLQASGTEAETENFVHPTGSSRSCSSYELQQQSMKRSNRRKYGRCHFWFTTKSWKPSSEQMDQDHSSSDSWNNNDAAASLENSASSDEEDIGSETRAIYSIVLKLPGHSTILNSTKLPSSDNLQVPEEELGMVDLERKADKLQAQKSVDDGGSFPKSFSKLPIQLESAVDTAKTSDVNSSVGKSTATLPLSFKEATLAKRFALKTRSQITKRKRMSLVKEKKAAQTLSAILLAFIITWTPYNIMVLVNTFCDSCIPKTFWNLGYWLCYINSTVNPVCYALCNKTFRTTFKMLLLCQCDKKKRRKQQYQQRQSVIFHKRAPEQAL
Chain of Voltage-gated inwardly rectifying potassium channel KCNH2 (Q12809 whole entry): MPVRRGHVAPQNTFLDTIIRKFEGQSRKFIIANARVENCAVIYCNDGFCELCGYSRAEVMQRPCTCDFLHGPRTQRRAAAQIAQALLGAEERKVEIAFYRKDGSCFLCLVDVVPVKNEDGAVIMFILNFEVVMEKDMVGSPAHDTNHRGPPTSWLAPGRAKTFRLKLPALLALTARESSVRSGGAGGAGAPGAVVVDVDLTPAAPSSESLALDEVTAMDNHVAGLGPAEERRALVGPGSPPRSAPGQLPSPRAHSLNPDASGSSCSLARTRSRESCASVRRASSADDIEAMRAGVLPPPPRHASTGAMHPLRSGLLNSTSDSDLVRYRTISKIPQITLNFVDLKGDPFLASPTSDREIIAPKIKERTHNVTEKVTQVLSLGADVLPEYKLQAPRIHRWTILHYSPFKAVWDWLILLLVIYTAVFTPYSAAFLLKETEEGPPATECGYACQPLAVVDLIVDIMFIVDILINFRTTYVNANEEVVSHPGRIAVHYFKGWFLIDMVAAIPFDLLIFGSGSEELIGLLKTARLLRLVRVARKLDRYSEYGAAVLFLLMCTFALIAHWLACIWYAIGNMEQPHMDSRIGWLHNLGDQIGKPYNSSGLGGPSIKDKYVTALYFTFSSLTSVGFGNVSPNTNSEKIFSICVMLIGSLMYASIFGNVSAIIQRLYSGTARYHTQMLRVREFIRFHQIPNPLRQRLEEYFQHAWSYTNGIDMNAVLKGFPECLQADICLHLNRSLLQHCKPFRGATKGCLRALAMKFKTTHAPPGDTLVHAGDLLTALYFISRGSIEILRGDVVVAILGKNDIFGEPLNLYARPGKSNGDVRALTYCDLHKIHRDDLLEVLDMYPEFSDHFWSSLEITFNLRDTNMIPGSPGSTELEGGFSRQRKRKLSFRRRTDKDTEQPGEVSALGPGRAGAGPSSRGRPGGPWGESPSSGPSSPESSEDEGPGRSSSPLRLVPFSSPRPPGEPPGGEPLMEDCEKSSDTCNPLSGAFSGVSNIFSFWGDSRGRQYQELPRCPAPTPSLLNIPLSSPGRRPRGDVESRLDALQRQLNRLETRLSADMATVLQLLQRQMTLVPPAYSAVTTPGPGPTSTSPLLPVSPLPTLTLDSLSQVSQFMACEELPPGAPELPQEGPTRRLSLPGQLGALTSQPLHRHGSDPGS
Chain of Cytochrome P450 2C9 (P11712 whole entry): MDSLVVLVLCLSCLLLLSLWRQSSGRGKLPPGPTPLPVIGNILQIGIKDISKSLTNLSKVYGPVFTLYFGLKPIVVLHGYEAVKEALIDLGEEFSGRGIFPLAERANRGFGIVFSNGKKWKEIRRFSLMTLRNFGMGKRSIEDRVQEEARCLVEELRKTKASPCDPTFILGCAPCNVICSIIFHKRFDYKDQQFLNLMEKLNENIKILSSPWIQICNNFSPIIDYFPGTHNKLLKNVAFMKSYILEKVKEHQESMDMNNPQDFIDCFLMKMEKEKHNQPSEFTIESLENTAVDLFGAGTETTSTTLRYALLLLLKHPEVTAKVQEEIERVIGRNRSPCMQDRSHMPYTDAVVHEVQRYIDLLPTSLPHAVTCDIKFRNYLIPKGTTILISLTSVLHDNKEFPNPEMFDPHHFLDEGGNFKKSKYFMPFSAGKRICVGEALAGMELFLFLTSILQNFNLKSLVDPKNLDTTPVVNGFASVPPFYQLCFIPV
Chain of Cytochrome P450 3A4 (P08684 whole entry): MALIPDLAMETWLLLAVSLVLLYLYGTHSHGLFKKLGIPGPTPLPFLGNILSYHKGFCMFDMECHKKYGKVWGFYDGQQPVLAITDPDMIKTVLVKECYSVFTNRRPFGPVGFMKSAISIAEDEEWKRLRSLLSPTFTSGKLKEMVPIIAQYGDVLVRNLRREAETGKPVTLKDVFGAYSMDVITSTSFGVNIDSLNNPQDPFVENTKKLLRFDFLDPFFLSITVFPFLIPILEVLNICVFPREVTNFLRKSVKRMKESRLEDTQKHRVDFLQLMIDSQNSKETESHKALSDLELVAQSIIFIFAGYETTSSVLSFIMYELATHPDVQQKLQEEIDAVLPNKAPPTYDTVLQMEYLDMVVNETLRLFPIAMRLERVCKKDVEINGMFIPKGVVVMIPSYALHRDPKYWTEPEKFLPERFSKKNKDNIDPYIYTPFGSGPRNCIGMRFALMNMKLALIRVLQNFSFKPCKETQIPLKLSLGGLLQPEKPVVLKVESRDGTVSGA
Chain of Cytochrome P450 2D6 (P10635 whole entry): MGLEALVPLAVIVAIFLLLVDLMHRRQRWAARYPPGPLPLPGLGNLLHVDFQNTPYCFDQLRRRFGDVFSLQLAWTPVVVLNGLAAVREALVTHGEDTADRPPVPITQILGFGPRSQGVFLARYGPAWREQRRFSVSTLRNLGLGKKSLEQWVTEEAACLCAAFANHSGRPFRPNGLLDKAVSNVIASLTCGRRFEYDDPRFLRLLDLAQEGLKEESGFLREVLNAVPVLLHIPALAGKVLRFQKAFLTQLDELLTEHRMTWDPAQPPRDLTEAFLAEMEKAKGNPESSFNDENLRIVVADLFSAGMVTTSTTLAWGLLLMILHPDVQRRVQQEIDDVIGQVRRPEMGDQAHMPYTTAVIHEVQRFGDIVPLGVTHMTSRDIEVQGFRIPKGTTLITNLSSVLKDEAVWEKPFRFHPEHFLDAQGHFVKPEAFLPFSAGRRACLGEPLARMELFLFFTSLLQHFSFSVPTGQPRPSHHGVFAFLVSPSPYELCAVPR

| Structure (SMILES) | EC50 [1] [nM] | logD [2] | EC50 [3] [nM] | Emax [4] [%] | Emax [5] [%] | microsomal CLint [6] [µL/min/mg] | Papp A→B [8] [×10⁻⁶ cm/s] | further results |
| --- | --- | --- | --- | --- | --- | --- | --- | --- |
| O=c1cc2c(nn1-c1ccccc1)CCNCC2 | > 10000 | -0.3 | > 10000 |  |  |  |  |  |
| Clc1cccc(N2CCNCC2)c1 |  |  |  | 71 | 35 |  |  |  |
| O=c1cc2c(nn1Cc1ccccc1Cl)CCNCC2 | 94 | 0.9 | 33 | 56 | 67 | < 7 |  |  |
| Cn1nc2c(cc1=O)CCNCC2 |  |  | 338 | 52 |  |  |  | Emax [7]: 32% |
| O=c1cc2c(nn1Cc1ccccc1)CCNCC2 | 358 | 0.3 | 31 | 79 | 48 | < 7 | 25 | Ratio EC50 [9]: 10 |
| c1ccc(Cn2cc3c(n2)CCNCC3)cc1 | > 10000 | 0.1 | 4980 | 65 |  | < 7 | 27 |  |
| N#Cc1ccc(Cn2nc3c(cc2=O)CCNCC3)cc1 |  | -0.1 | 6630 | 51 |  | < 7 | 11 | Emax [7]: 42% |
| O=c1cc2c(nn1Cc1cccc(Cl)c1)CCNCC2 | 81 | 1.1 | 30 | 70 | 73 | < 7 | 32 |  |
| O=c1[nH]n(Cc2ccccc2)c2c1CCNCC2 | > 10000 | -0.1 | > 10000 | 68 |  | < 7 |  |  |
| Cc1nnc2c3c(nc(Cc4ccccc4)n12)CCNCC3 |  |  |  |  |  |  |  | Emax [10]: 36%; EC50 [11]: 1600 nM |
| O=c1cc2c(nn1Cc1ccc(C3CC3)cc1)CCNCC2 | 84 | 1.4 | 26 | 51 | 34 | < 7 |  |  |
| O=c1cc2c(nn1Cc1ccccc1OC(F)(F)F)CCNCC2 | 142 | 1.2 | 107 | 57 | 86 | < 7 |  |  |
| O=c1cc2c(nn1Cc1ccc(Cl)cc1)CCNCC2 | 267 | 1.1 | 31 | 40 | 73 | < 7 |  |  |
| O=c1c2c([nH]n1Cc1ccccc1)CCNCC2 | > 10000 | -0.5 | > 10000 | 57 |  |  | 2 | CL [12]: 13 µL/min/mg |
| O=c1cc2c(nn1Cc1ccc(C(F)(F)F)cc1)CCNCC2 | 473 | 1.1 | 125 | 47 | 59 | 10 |  |  |
| Cn1c2c(c(=O)n1Cc1ccccc1)CCNCC2 | > 10000 | 0 | 2930 |  |  | < 7 | 13 |  |
| CC(C)CCn1nc2c(cc1=O)CCNCC2 |  | 0.6 | 62 | 77 |  | < 7 |  | Emax [7]: 65% |
| c1ccc(COc2n[nH]c3c2CCNCC3)cc1 | 353 | 0.5 | 176 |  | 56 | < 7 | 24 |  |
| O=c1cc2c(nn1Cc1ccc(OC(F)(F)F)cc1)CCNCC2 | > 10000 | 1.5 | 48 | 66 | 58 | < 7 |  |  |
| Cc1nc2c3c(nc(Cc4ccccc4)n2n1)CCNCC3 |  |  |  |  |  |  |  | inhibition (INH) [13]: < 10%; inhibition (INH) [14]: < 10%; Emax [10]: 40%; inhibition (INH) [15]: < 10%; Ki [16]: 3700 nM; Ki [17]: 8200 nM; Efficacy [18]: 20%; concentration at 1 h [19]: 89 nM; inhibition (INH) [20]: < 10%; Ki [21]: > 22000 nM; Ki [22]: 7600 nM; EC50 [11]: 1800 nM |
| O=c1cc2c(nn1CCOc1ccccc1)CCNCC2 | > 10000 | 0.4 | > 10000 |  |  | < 7 |  |  |
